Test results as given in patent publication US10414763B2 (CANCER RESEARCH TECHNOLOGY LIMITED, priority 2014, dated 2019).

Molecular target: T1, full-length human PKCι (Homo sapiens, UniProt P41743)
T1 construct: Recombinant, full-length human PKCι expressed in Sf21 insect cells is also commercially available; purchased EMD Millipore; host or cells: Sf21 insect cells (baculovirus)
T1 sequence (P41743 1-596): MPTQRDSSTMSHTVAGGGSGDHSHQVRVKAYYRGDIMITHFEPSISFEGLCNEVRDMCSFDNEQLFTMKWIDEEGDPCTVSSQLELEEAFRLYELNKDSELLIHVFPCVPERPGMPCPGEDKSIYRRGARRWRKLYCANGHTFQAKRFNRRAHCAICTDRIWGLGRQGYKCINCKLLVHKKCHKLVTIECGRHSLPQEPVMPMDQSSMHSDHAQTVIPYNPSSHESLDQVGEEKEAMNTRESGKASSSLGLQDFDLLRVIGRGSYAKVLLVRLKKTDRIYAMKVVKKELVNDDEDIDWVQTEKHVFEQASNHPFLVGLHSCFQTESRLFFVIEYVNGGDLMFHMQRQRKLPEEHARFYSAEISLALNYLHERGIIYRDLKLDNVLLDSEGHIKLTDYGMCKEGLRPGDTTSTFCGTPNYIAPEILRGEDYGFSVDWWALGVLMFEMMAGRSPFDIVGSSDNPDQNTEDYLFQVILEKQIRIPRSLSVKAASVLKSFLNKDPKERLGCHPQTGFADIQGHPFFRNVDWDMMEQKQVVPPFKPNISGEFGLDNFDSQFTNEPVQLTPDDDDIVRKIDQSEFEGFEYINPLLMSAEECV
Assay: PKCι IC50 IMAP fluorescence polarisation assay, full-length enzyme, 150 μM ATP
Assay type: biochemical
Settings: read-out: IC50 in IMAP assay against full length PKCi at 150 μM ATP
How it was run: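 IMAP fluorescence polarisation kinase assay: 15 pM baculovirus-expressed human PKCiota with 100 nM FAM-pseudosubstrate peptide and 150 μM ATP, 1 h at 25 °C. IMAP detection reagent then 2 h at 25 °C before FP measurement. Inhibition referenced to no-compound and no-enzyme controls for IC50 fitting.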

Row | SMILES | IC50 [µM]
1 | CN(c1nc(-c2ccnc(Nc3cc4ccccn4n3)c2)nc2cncc(C3CC3)c12)C1CCNCC1(C)C (stereo not shown) [Example 36, {5-Cyclopropyl-2-[2-(pyrazolo[1,5-a]pyridin-2-ylamino)-pyridin-4-yl]-pyrido[3,4-d]pyrimidin-4-yl}-(3,3-dimethyl-piperidin-4-yl)-methyl-amine] | < 0.1
2 | Fc1ccc(-c2cc3c(-c4nc(N5CCNCC5)c5c(C6CC6)cncc5n4)ccnc3[nH]2)c(F)n1 [Example 40, 5-Cyclopropyl-2-[2-(2,6-difluoro-pyridin-3-yl)-1H-pyrrolo[2,3-b]pyridin-4-yl]-4-piperazin-1-yl-pyrido[3,4-d]pyrimidine] | < 0.1
3 | Cc1ccc(-c2cc3c(-c4nc(N5CCNCC5)c5c(C6CC6)cncc5n4)ccnc3[nH]2)s1 [Example 41, 5-Cyclopropyl-2-[2-(5-methyl-thiophen-2-yl)-1H-pyrrolo[2,3-b]pyridin-4-yl]-4-piperazin-1-yl-pyrido[3,4-d]pyrimidine] | < 0.1
4 | Cc1ccc(-c2cc3c(-c4nc(N5CCNCC5)c5c(C6CC6)cncc5n4)ccnc3[nH]2)o1 [Example 42, 5-Cyclopropyl-2-[2-(5-methyl-furan-2-yl)-1H-pyrrolo[2,3-b]pyridin-4-yl]-4-piperazin-1-yl-pyrido[3,4-d]pyrimidine] | < 0.1
5 | CN(c1nc(-c2ccnc3[nH]c4ccccc4c23)nc2cncc(C3CCC3)c12)C1CCCNCC1 (stereo not shown) [Example 44, Azepan-4-yl-[5-cyclobutyl-2-(9H-pyrido[2,3-b]indol-4-yl)-pyrido[3,4-d]pyrimidin-4-yl]-methyl-amine] | < 0.1
6 | CN(c1nc(-c2ccnc3[nH]c(-c4cc(Cl)ccc4Cl)cc23)nc2cncc(C3CC3)c12)C1CCNCC1(C)C (stereo not shown) [Example 45, {5-Cyclopropyl-2-[2-(2,5-dichloro-phenyl)-1H-pyrrolo[2,3-b]pyridin-4-yl]-pyrido[3,4-d]pyrimidin-4-yl}-(3,3-dimethyl-piperidin-4-yl)-methyl-amine] | < 0.1
7 | Clc1ccc(Cl)c(-c2cc3c(-c4nc(N5CCNCC5)c5c(C6CC6)cncc5n4)ccnc3[nH]2)c1 [Example 46, 5-Cyclopropyl-2-[2-(2,5-dichloro-phenyl)-1H-pyrrolo[2,3-b]pyridin-4-yl]-4-piperazin-1-yl-pyrido[3,4-d]pyrimidine] | < 0.1
8 | CN(c1nc(-c2ccnc(Nc3nc(C4CC4)cs3)c2)nc2cncc(C3CC3)c12)C1CCNCC1(C)C (stereo not shown) [Example 53, {5-Cyclopropyl-2-[2-(4-cyclopropyl-thiazol-2-ylamino)-pyridin-4-yl]-pyrido[3,4-d]pyrimidin-4-yl}-(3,3-dimethyl-piperidin-4-yl)-methyl-amine] | 0.1 to 1
9 | CN(C)CC#Cc1cc2c(-c3nc(N4CCNCC4)c4c(C5CCC5)cncc4n3)ccnc2[nH]1 [Example 55, {3-[4-(5-Cyclobutyl-4-piperazin-1-yl-pyrido[3,4-d]pyrimidin-2-yl)-1H-pyrrolo[2,3-b]pyridin-2-yl]-prop-2-ynyl}-dimethyl-amine] | < 0.1
10 | c1ccc2c(c1)[nH]c1nccc(-c3nc(N4CCC5NCCC54)c4c(C5CCC5)cncc4n3)c12 (stereo not shown) [Example 59, 4-[5-Cyclobutyl-4-(hexahydro-pyrrolo[3,2-b]pyrrol-1-yl)-pyrido[3,4-d]pyrimidin-2-yl]-9H-pyrido[2,3-b]indole] | < 0.1
11 | NC1CCC(Nc2nc(-c3ccnc4[nH]c5ccccc5c34)nc3cncc(C4CCC4)c23)C1 (stereo not shown) [Example 60, N-[5-Cyclobutyl-2-(9H-pyrido[2,3-b]indol-4-yl)-pyrido[3,4-d]pyrimidin-4-yl]-cyclopentane-1,3-diamine] | < 0.1
12 | CN(c1nc(-c2ccnc3[nH]c(-c4cccnc4)cc23)nc2cncc(C3CC3)c12)C1CCNCC1(C)C (stereo not shown) [Example 61, [5-Cyclopropyl-2-(2-pyridin-3-yl-1H-pyrrolo[2,3-b]pyridin-4-yl)-pyrido[3,4-d]pyrimidin-4-yl]-(3,3-dimethyl-piperidin-4-yl)-methyl-amine] | < 0.1
13 | O=C(NC1CCCCC1)c1cc2c(-c3nc(N4CCNCC4)c4c(C5CC5)cncc4n3)ccnc2[nH]1 [Example 62, 4-(5-Cyclopropyl-4-piperazin-1-yl-pyrido[3,4-d]pyrimidin-2-yl)-1H-pyrrolo[2,3-b]pyridine-2-carboxylic acid cyclohexylamide] | < 0.1
14 | FC(F)(F)c1cc2c(-c3nc(N4CCCC5NCCCC54)c4c(C5CC5)cncc4n3)ccnc2[nH]1 (stereo not shown) [Example 64, 5-Cyclopropyl-4-(octahydro-[1,5]naphthyridin-1-yl)-2-(2-trifluoromethyl-1H-pyrrolo[2,3-b]pyridin-4-yl)-pyrido[3,4-d]pyrimidine] | < 0.1
15 | CN(c1nc(-c2ccnc3[nH]c(C(=O)NC4CCCCC4)cc23)nc2cncc(C3CC3)c12)C1CCNCC1(C)C (stereo not shown) [Example 66, 4-{5-Cyclopropyl-4-[(3,3-dimethyl-piperidin-4-yl)-methyl-amino]-pyrido[3,4-d]pyrimidin-2-yl}-1H-pyrrolo[2,3-b]pyridine-2-carboxylic acid cyclohexylamide] | < 0.1

The remaining lines, values ahead:

Row | IC50 [µM] | SMILES
16 | < 0.1 | c1cc(-c2nc(N3CCNCC3)c3c(C4CC4)cncc3n2)cc(Nc2nc(C3CC3)cs2)n1 [Example 37, [4-(5-Cyclopropyl-4 piperazin-1-yl-pyrido[3,4-d]pyrimidin-2-yl)-pyridin-2-yl]-(4-cyclopropyl-thiazol-2-yl)-amine]
17 | < 0.1 | c1cc(-c2nc(N3CCNCC3)c3c(C4CCC4)cncc3n2)cc(Nc2nc(C3CC3)cs2)n1 [Example 38, [4-(5-Cyclobutyl-4-piperazin-1-yl-pyrido[3,4-d]pyrimidin-2-yl)-pyridin-2-yl]-(4-cyclopropyl-thiazol-2-yl)-amine]
18 | 0.1 to 1 | CC1(C)CNCCC1Nc1nc(-c2ccnc(Nc3nc(C4CC4)cs3)c2)nc2cncc(C3CC3)c12 (stereo not shown) [Example 39, {5-Cyclopropyl-2-[2-(4-cyclopropyl-thiazol-2-ylamino)-pyridin-4-yl]-pyrido[3,4-d]pyrimidin-4-yl}-(3,3-dimethyl-piperidin-4-yl)-amine]
19 | < 0.1 | Fc1ncccc1-c1cc2c(-c3nc(N4CCNCC4)c4c(C5CC5)cncc4n3)ccnc2[nH]1 [Example 43, 5-Cyclopropyl-2-[2-(2-fluoro-pyridin-3-yl)-1H-pyrrolo[2,3-b]pyridin-4-yl]-4-piperazin-1-yl-pyrido[3,4-d]pyrimidine]
20 | < 0.1 | CC1(C)CNCCC1Nc1nc(-c2ccnc(Nc3ccccc3)c2)nc2cncc(C3CC3)c12 (stereo not shown) [Example 47, [5-Cyclopropyl-2-(2-phenylamino-pyridin-4-yl)-pyrido[3,4-d]pyrimidin-4-yl]-(3,3-dimethyl-piperidin-4-yl)-amine]
21 | < 0.1 | CC1(C)CNCCC1Nc1nc(-c2ccnc(Nc3ccc(F)cn3)c2)nc2cncc(C3CC3)c12 (stereo not shown) [Example 48, {5-Cyclopropyl-2-[2-(5-fluoro-pyridin-2-ylamino)-pyridin-4-yl]-pyrido[3,4-d]pyrimidin-4-yl}-(3,3-dimethyl-piperidin-4-yl)-amine]
22 | < 0.1 | CC1(C)CNCCC1Nc1nc(-c2ccnc(Nc3ncccc3F)c2)nc2cncc(C3CC3)c12 (stereo not shown) [Example 49, {5-Cyclopropyl-2-[2-(3-fluoro-pyridin-2-ylamino)-pyridin-4-yl]-pyrido[3,4-d]pyrimidin-4-yl}-(3,3-dimethyl-piperidin-4-yl)-amine]
23 | < 0.1 | CC1(C)CNCCC1Nc1nc(-c2ccnc(Nc3cc(F)ccn3)c2)nc2cncc(C3CC3)c12 (stereo not shown) [Example 50, {5-Cyclopropyl-2-[2-(4-fluoro-pyridin-2-ylamino)-pyridin-4-yl]-pyrido[3,4-d]pyrimidin-4-yl}-(3,3-dimethyl-piperidin-4-yl)-amine]
24 | < 0.1 | CC1(C)CNCCC1Nc1nc(-c2ccnc(Nc3cc(C(F)(F)F)ccn3)c2)nc2cncc(C3CC3)c12 (stereo not shown) [Example 51, {5-Cyclopropyl-2-[2-(4-trifluoromethyl-pyridin-2-ylamino)-pyridin-4-yl]-pyrido[3,4-d]pyrimidin-4-yl}-(3,3-dimethyl-piperidin-4-yl)-amine]
25 | 0.1 to 1 | CC(C)(C)c1csc(Nc2cc(-c3nc(N4CCNCC4)c4c(C5CC5)cncc4n3)ccn2)n1 [Example 52, (4-tert-Butyl-thiazol-2-yl)-[4-(5-cyclopropyl-4-pipcrazin-1-yl-pyrido[3,4-d]pyrimidin-2-yl)-pyridin-2-yl]-amine]
26 | < 0.1 | c1cncc(-c2cc3c(-c4nc(N5CCNCC5)c5c(C6CC6)cncc5n4)ccnc3[nH]2)c1 [Example 58, 5-Cyclopropyl-4-piperazin-1-yl-2-(2-pyridin-3-yl-1H-pyrrolo[2,3-b]pyridin-4-yl)-pyrido[3,4-d]pyrimidine]
27 | 0.1 to 1 | O=S(=O)(Nc1cc(-c2nc(N3CCNCC3)c3c(C4CC4)cncc3n2)ccn1)c1ccc(F)cc1 [Example 65, N-[4-(5-Cyclopropyl-4-piperazin-1-yl-pyrido[3,4-d]pyrimidin-2-yl)-pyridin-2-yl]-4-fluoro-benzenesulfonamide]
28 | < 0.1 | CC1(C)CNCCC1Nc1nc(-c2ccnc(Nc3ccc(F)cn3)c2)nc2cncc(C3CCC3)c12 (stereo not shown) [Example 67, {5-Cyclobutyl-2-[2-(5-fluoro-pyridin-2-ylamino)-pyridin-4-yl]-pyrido[3,4-d]pyrimidin-4-yl}-(3,3-dimethyl-piperidin-4-yl)-amine]
